Test results as given in article PMC11990322, “Cholinium-Based Ionic Liquids Modulate Protein Stability: A Comparative Study of Enzymes and Albumins” (Molecules, 2025).

Columns and labels:
lysozyme = target: T1, lysozyme (Gallus gallus, UniProt P00698); assay: Trp fluorescence quenching, double-log plot; type: binding; conditions: 10 mM PBS, 1 mg/mL enzyme, excitation 295 nm
T1 construct: gene LYZ; docking model 6LYZ and six Trp agree
Source text: Trp fluorescence quenching, double-log plot on lysozyme

α-chymotrypsin = target: T2, α-chymotrypsin (Bos taurus, UniProt P00766); assay: Trp fluorescence quenching, double-log plot; type: binding; conditions: 10 mM PBS, 1 mg/mL enzyme, excitation 295 nm
T2 construct: docking model 1YPH agrees
Source text: Trp fluorescence quenching, double-log plot on α-chymotrypsin

T1 sequence (P00698 19-147): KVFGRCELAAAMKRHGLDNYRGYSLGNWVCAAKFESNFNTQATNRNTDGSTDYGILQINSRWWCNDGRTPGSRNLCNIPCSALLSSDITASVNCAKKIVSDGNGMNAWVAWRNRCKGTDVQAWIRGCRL

Row | Kb/M^-1 a (lysozyme; n = 0.99, ion-pair salt titrated as ligand, ligand unfolds the tertiary structure) [M⁻¹] | Kb/M^-1 a (α-chymotrypsin; n = 1.40, ion-pair salt titrated as ligand, ligand perturbs the tertiary structure) [M⁻¹] | SMILES | Kb/M^-1 a (lysozyme; n = 1.15, ion-pair salt titrated as ligand) [M⁻¹] | Kb/M^-1 a (α-chymotrypsin; n = 1.19, ion-pair salt titrated as ligand) [M⁻¹]
1 |  |  | C[N+](C)(C)CCO.O=C([O-])CCC(=O)O [[Ch][Suc]] | 31.64 ± 6.01 | 30.95 ± 5.69
2 | 73.84 ± 10.34 | 280.6 ± 30.05 | CC(C)[C@H](N)C(=O)O [[Ch][Val]] |  | 
